# Patent US20250205344A1, “2,4-DIOXOTETRAHYDROPYRIMIDINYL DERATIVES AS DEGRONS IN PROTACS” (GLAXOSMITHKLINE INTELLECTUAL PROPERTY DEVELOPMENT LIMITED, priority 2022, published 2025)
# Structures can show the parent of a compound that is named as a salt.
# Target: T1, Androgen Receptor (Homo sapiens, UniProt P10275, T878A)
# T1 construct: the AR gene was modified, using CRISPR/Cas9 editing, so the expressed AR protein included an 11 amino acid HiBiT tag; endogenous in cells; host or cells: clonal LnCaP-derived line, AR gene edited by CRISPR/Cas9
# T1 sequence (P10275 whole entry T878A): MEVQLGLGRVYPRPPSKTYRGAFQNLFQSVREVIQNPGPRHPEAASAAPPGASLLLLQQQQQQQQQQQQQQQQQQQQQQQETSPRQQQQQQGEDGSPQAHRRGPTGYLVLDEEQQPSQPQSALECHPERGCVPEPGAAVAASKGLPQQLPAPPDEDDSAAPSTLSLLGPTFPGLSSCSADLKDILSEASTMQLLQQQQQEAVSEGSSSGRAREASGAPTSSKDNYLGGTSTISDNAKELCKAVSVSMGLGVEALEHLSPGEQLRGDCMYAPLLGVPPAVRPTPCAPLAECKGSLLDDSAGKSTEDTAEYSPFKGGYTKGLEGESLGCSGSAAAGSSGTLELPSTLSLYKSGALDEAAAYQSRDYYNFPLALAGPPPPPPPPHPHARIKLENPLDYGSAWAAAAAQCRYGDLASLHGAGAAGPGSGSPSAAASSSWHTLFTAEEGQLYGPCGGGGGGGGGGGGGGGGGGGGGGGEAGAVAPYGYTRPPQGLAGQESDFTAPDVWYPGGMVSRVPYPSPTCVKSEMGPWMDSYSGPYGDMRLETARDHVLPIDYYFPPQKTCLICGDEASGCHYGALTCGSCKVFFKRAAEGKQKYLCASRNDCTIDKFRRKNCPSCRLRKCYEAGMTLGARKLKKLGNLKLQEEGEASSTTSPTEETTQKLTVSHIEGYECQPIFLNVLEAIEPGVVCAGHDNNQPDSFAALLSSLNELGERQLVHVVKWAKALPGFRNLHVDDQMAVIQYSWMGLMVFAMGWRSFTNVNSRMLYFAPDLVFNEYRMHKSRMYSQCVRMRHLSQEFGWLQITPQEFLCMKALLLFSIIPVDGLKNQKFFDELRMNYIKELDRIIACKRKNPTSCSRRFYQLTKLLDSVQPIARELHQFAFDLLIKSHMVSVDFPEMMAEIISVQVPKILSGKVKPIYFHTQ
# T1 sequence (Q96SW2 whole entry partner): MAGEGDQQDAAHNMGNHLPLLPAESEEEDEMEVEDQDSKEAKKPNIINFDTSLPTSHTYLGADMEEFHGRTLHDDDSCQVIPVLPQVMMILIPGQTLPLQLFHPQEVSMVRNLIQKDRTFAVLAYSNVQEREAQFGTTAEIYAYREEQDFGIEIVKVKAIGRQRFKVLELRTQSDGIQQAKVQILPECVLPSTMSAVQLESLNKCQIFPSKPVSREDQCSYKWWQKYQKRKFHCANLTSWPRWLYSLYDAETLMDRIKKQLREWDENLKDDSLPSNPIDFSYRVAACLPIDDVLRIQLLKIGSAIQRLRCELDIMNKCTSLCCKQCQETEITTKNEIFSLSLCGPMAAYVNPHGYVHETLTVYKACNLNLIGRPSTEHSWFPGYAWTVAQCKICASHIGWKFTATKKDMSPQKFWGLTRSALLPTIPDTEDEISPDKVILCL
# T1 sequence (Q16531 whole entry partner): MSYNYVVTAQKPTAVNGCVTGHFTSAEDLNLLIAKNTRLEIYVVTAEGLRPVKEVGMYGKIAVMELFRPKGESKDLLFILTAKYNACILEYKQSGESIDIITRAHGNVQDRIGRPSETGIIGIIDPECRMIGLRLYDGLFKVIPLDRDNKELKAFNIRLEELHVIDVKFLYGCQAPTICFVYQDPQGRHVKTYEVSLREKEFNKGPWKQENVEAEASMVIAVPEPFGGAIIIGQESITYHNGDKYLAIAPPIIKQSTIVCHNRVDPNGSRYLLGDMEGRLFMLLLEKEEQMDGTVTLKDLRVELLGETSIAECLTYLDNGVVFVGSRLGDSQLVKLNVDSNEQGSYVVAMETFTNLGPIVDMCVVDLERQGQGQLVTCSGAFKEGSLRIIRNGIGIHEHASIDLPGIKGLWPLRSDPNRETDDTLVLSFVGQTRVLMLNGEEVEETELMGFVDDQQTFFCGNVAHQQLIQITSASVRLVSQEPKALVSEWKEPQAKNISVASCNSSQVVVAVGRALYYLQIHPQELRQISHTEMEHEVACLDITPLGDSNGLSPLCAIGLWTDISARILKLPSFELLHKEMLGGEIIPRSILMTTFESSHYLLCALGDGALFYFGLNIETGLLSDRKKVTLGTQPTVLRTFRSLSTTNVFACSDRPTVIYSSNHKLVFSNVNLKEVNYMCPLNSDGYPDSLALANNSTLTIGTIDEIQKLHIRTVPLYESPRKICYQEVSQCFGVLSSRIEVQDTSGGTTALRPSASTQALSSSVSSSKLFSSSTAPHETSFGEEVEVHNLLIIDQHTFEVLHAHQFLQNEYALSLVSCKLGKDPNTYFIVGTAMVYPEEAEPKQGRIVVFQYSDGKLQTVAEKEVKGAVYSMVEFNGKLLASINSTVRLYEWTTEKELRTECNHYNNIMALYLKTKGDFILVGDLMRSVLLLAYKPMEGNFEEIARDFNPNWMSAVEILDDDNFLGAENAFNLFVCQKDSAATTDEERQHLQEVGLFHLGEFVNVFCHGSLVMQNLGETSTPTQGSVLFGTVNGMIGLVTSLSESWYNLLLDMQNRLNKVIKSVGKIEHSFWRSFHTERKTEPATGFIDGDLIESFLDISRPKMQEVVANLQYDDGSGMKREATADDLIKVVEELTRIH
# Test: Androgen Receptor Degradation Assay (Nano-Glo HiBiT)
# Type: cell-based
# Details: LNCaP, 18 h, HiBiT-tagged AR in human LnCaP cells, read-out: mean asymptote max
# Protocol: Degradation of Androgen Receptor protein in human LnCaP cells treated with PROTACs was quantified using the Nano-Glo® HiBiT Lytic Detection System (Promega) in 384 well assay plate format. A clonal LnCaP derived cell line was first established in which the AR gene was modified, using CRISPR/Cas9 editing, so the expressed AR protein included an 11 amino acid HiBiT tag at its amino-terminus. 10 mM DMSO stock solutions of PROTACs were prepared and diluted across an 11 concentration, 3 fold increment range, and 25 nL dispensed into a white opaque bottomed 384 well assay plate (Thermofisher) using an acoustic ECHO dispenser (Labcyte). […] For the assay, cells were detached from flask and resuspended with assay medium (FluoroBrite™ DMEM supplemented with 10% heat inactivated FBS, penicillin 50 U/mL and streptomycin 50 ug/mL (Thermofisher)). The cell suspension was centrifuged at 400 g for 5 min and the pellet resuspended in assay medium. 25 μL of cell suspension containing 10,000 cells was dispensed into each well of the assay plate containing the test compounds, which was then incubated for 18 h at 37° C./5% CO2. Control wells were included on each assay plate, with assay medium without cells being the no AR remaining 100% effect control, and cells treated with DMSO vehicle only, without PROTAC, the 0% effect control. 25 μL of Nano-Glo® HiBiT lysis buffer supplemented with LgBiT protein and Nano-Glo® substrate (Promega) was added to each well and the plate shaken at 500 rpm for 10 min at room temperature. The intensity of luminescence was measured using a PHERAstar microplate reader (BMG Labtech) and the % AR protein remaining in each well calculated by normalising the raw luminescence value to the above control wells. Parameters corresponding to the potency and efficacy estimates of the PROTACs were obtained from these normalised luminescence values using software (IDBS ActivityBase). These included the DC50 and the Dmax estimates. Two versions of the DC50, called relative DC50 and absolute DC50, were typically generated. These are the inflection point of a fitted 4 parameter sigmoidal response curve and the interpolated concentration of PROTAC corresponding to 50% of the protein being degraded, respectively. The Dmax parameter was the maximum experimentally observed degradation and the asymptote max parameter the fitted response curve asymptote maximum.
row,Compound,Dmax [%]
1,"N#Cc1ccc(O[C@H]2CC[C@H](NC(=O)c3cnc(N4CCC(CN5CCC(n6ncc7c(N8CCC(=O)NC8=O)cncc76)CC5)CC4)nc3)CC2)cc1Cl [AR216, N-((1r,4r)-4-(3-chloro-4-cyanophenoxy)cyclohexyl)-2-(4-((4-(4-(2,4-dioxotetrahydropyrimidin-1(2H)-yl)-1H-pyrazolo[3,4-c]pyridin-1-yl)piperidin-1-yl)methyl)piperidin-1-yl)pyrimidine-5-carboxamide]",≥ 50
2,"N#Cc1ccc(O[C@H]2CC[C@H](NC(=O)c3ccc(N4CCC(CN5CCC(n6ccc7c(N8CCC(=O)NC8=O)cccc76)CC5)CC4)nn3)CC2)cc1C(F)(F)F [EAR24, N-((1r,4r)-4-(4-Cyano-3-(trifluoromethyl)phenoxy)cyclohexyl)-6-(4-((4-(4-(2,4-dioxotetrahydropyrimidin-1(2H)-yl)-1H-indol-1-yl)piperidin-1-yl)methyl)piperidin-1-yl)pyridazine-3-carboxamide]",≥ 50
3,"CC(C)n1ccc2c(N3CCC(=O)NC3=O)cc(C(=O)N3CCN(CCCCOc4ccc(N5C(=S)N(c6ccc(C#N)c(C(F)(F)F)c6)C(=O)C5(C)C)cc4)CC3)cc21 [EAR92, 4-(3-(4-(4-(4-(4-(2,4-Dioxotetrahydropyrimidin-1(2H)-yl)-1-isopropyl-1H-indole-6-carbonyl)piperazin-1-yl)butoxy)phenyl)-4,4-dimethyl-5-oxo-2-thioxoimidazolidin-1-yl)-2-(trifluoromethyl)benzonitrile]",≥ 50
4,"N#Cc1ccc(O[C@H]2CC[C@H](NC(=O)c3ccc(N4CCN(CC(=O)N5CCC(n6ncc7c(N8CCC(=O)NC8=O)cccc76)CC5)CC4)nn3)CC2)cc1Cl [EAR158, N-((1r,4r)-4-(3-Chloro-4-cyanophenoxy)cyclohexyl)-6-(4-(2-(4-(4-(2,4-dioxotetrahydropyrimidin-1(2H)-yl)-1H-indazol-1-yl)piperidin-1-yl)-2-oxoethyl)piperazin-1-yl)pyridazine-3-carboxamide]",≥ 50
5,"N#Cc1ccc(O[C@H]2CC[C@H](NC(=O)c3cnc(N4CCC(CN5CCC(n6ccc7c(N8CCC(=O)NC8=O)cncc76)CC5)CC4)cn3)CC2)cc1Cl [AR16, N-((1r,4r)-4-(3-Chloro-4-cyanophenoxy)cyclohexyl)-5-(4-((4-(4-(2,4-dioxotetrahydropyrimidin-1(2H)-yl)-1H-pyrrolo[2,3-c]pyridin-1-yl)piperidin-1-yl)methyl)piperidin-1-yl)pyrazine-2-carboxamide]",≥ 50
6,"N#Cc1ccc(O[C@H]2CC[C@H](NC(=O)c3cnc(N4CCC(CN5CCC(n6ccc7c(N8CCC(=O)NC8=O)cncc76)CC5)CC4)cn3)CC2)cc1C(F)(F)F [AR15, N-((1r,4r)-4-(4-Cyano-3-(trifluoromethyl)phenoxy)cyclohexyl)-5-(4-((4-(4-(2,4-dioxotetrahydropyrimidin-1(2H)-yl)-1H-pyrrolo[2,3-c]pyridin-1-yl)piperidin-1-yl)methyl)piperidin-1-yl)pyrazine-2-carboxamide]",≥ 50
7,"N#Cc1ccc(O[C@H]2CC[C@H](NC(=O)c3ccc(OCCCN4CCC(n5ccc6c(N7CCC(=O)NC7=O)cccc65)CC4)cn3)CC2)cc1Cl [EAR62, N-((1r,4r)-4-(3-Chloro-4-cyanophenoxy)cyclohexyl)-5-(3-(4-(4-(2,4-dioxotetrahydropyrimidin-1(2H)-yl)-1H-indol-1-yl)piperidin-1-yl)propoxy)picolinamide]",≥ 50
8,"CC(C)n1ccc2c(N3CCC(=O)NC3=O)cc(C(=O)N3CCN(CC4CCN(c5ccc(C(=O)N[C@H]6C(C)(C)[C@H](Oc7ccc(C#N)c(Cl)c7)C6(C)C)nn5)CC4)CC3)cc21 [EAR78, N-((1r,3r)-3-(3-Chloro-4-cyanophenoxy)-2,2,4,4-tetramethylcyclobutyl)-6-(4-((4-(4-(2,4-dioxotetrahydropyrimidin-1(2H)-yl)-1-isopropyl-1H-indole-6-carbonyl)piperazin-1-yl)methyl)piperidin-1-yl)pyridazine-3-carboxamide]",≥ 50
9,"N#Cc1ccc(O[C@H]2CC[C@H](NC(=O)c3ccc(N4CCC(CN5CC[C@@H](n6ccc7c(N8CCC(=O)NC8=O)cccc76)[C@@H](F)C5)CC4)nn3)CC2)cc1Cl [EAR155, N-((1r,4r)-4-(3-Chloro-4-cyanophenoxy)cyclohexyl)-6-(4-(((3S,4R)-4-(4-(2,4-dioxotetrahydropyrimidin-1(2H)-yl)-1H-indol-1-yl)-3-fluoropiperidin-1-yl)methyl)piperidin-1-yl)pyridazine-3-carboxamide, hydrochloride]",≥ 50

# Now from value to molecule:
row,Dmax [%],Compound
1,≥ 50,"N#Cc1ccc(O[C@H]2CC[C@H](NC(=O)c3ccc(N4CCC(CN5CCC(n6ccc7c(N8CCC(=O)NC8=O)nc(Cl)nc76)CC5)CC4)nn3)CC2)cc1Cl [EAR175, 6-(4-((4-(2-Chloro-4-(2,4-dioxotetrahydropyrimidin-1(2H)-yl)-7H-pyrrolo[2,3-d]pyrimidin-7-yl)piperidin-1-yl)methyl)piperidin-1-yl)-N-((1r,4r)-4-(3-chloro-4-cyanophenoxy)cyclohexyl)pyridazine-3-carboxamide]"
2,≥ 50,"N#Cc1ccc(O[C@H]2CC[C@H](NC(=O)c3cnc(N4CCC(CN5CCC(n6ccc7c(N8CCC(=O)NC8=O)nccc76)CC5)CC4)cn3)CC2)cc1Cl [EAR182, N-((1r,4r)-4-(3-Chloro-4-cyanophenoxy)cyclohexyl)-5-(4-((4-(4-(2,4-dioxotetrahydropyrimidin-1(2H)-yl)-1H-pyrrolo[3,2-c]pyridin-1-yl)piperidin-1-yl)methyl)piperidin-1-yl)pyrazine-2-carboxamide]"
3,≥ 50,"N#Cc1ccc(O[C@H]2CC[C@H](NC(=O)c3cnc(N4CCC(CN5CCC(n6ccc7c(N8CCC(=O)NC8=O)ncnc76)CC5)CC4)nc3)CC2)cc1Cl [EAR200, N-((1r,4r)-4-(3-Chloro-4-cyanophenoxy)cyclohexyl)-2-(4-((4-(4-(2,4-dioxotetrahydropyrimidin-1(2H)-yl)-7H-pyrrolo[2,3-d]pyrimidin-7-yl)piperidin-1-yl)methyl)piperidin-1-yl)pyrimidine-5-carboxamide hydrochloride]"
4,≥ 50,"N#Cc1ccc(O[C@H]2CC[C@H](NC(=O)c3ccc(N4CCC(C#N)(CCN5CCC(n6ncc7c(N8CCC(=O)NC8=O)cccc76)CC5)CC4)nn3)CC2)cc1Cl [EAR221, N-((1r,4r)-4-(3-chloro-4-cyanophenoxy)cyclohexyl)-6-(4-cyano-4-(2-(4-(4-(2,4-dioxotetrahydropyrimidin-1(2H)-yl)-1H-indazol-1-yl)piperidin-1-yl)ethyl)piperidin-1-yl)pyridazine-3-carboxamide]"
5,≥ 50,"N#Cc1ccc(O[C@H]2CC[C@H](NC(=O)c3ccc(N4CCC(CN5CCC(n6ncc7c(N8CCC(=O)NC8=O)ccnc76)CC5)CC4)nn3)CC2)cc1C(F)(F)F [EAR210, N-((1r,4r)-4-(4-Cyano-3-(trifluoromethyl)phenoxy)cyclohexyl)-6-(4-((4-(4-(2,4-dioxotetrahydropyrimidin-1(2H)-yl)-1H-pyrazolo[3,4-b]pyridin-1-yl)piperidin-1-yl)methyl)piperidin-1-yl)pyridazine-3-carboxamide]"
6,≥ 50,"N#Cc1ccc(O[C@H]2CC[C@H](NC(=O)c3ccc(N4CCC(CN5CCC(n6ccc7c(N8CCC(=O)NC8=O)nccc76)CC5)CC4)cc3)CC2)cc1Cl [EAR197, N-((1r,4r)-4-(3-Chloro-4-cyanophenoxy)cyclohexyl)-4-(4-((4-(4-(2,4-dioxotetrahydropyrimidin-1(2H)-yl)-1H-pyrrolo[3,2-c]pyridin-1-yl)piperidin-1-yl)methyl)piperidin-1-yl)benzamide]"
7,≥ 50,"N#Cc1ccc(O[C@H]2CC[C@H](NC(=O)c3ccc(N4C[C@]5(CN6CCC(n7ncc8c(N9CCC(=O)NC9=O)cccc87)CC6)C[C@]5(C(F)(F)F)C4)nn3)CC2)cc1Cl [EAR244, N-((1r,4R)-4-(3-chloro-4-cyanophenoxy)cyclohexyl)-6-((1R,5R)-1-((4-(4-(2,4-dioxotetrahydropyrimidin-1(2H)-yl)-1H-indazol-1-yl)piperidin-1-yl)methyl)-5-(trifluoromethyl)-3-azabicyclo[3.1.0]hexan-3-yl)pyridazine-3-carboxamide]"
8,≥ 50,"CC1(CN2CCC(n3ncc4c(N5CCC(=O)NC5=O)cccc43)CC2)CCN(c2ccc(C(=O)N[C@H]3CC[C@H](Oc4ccc(C#N)c(Cl)c4)CC3)nn2)CC1 [EAR242, N-((1r,4r)-4-(3-chloro-4-cyanophenoxy)cyclohexyl)-6-(4-((4-(4-(2,4-dioxotetrahydropyrimidin-1(2H)-yl)-1H-indazol-1-yl)piperidin-1-yl)methyl)-4-methylpiperidin-1-yl)pyridazine-3-carboxamide]"
